Patent US8329675B2, “Inhibitors of fatty acid amide hydrolase” (Infinity Pharmaceuticals, Inc., priority 2006, dated 2012)
pKi: −log10 of the molar value.

Each compound was assayed against T1, human FAAH (Homo sapiens, UniProt O00519) (assay: Human FAAH biochemical inhibition assay (AMC arachidonoyl amide fluorescence)). Conditions: not given.
T1 construct: host or cells: COS-7 cells, transient transfection; 13,000 g membrane fraction solubilised in 1% Triton X-100
T1 sequence (O00519 1-579): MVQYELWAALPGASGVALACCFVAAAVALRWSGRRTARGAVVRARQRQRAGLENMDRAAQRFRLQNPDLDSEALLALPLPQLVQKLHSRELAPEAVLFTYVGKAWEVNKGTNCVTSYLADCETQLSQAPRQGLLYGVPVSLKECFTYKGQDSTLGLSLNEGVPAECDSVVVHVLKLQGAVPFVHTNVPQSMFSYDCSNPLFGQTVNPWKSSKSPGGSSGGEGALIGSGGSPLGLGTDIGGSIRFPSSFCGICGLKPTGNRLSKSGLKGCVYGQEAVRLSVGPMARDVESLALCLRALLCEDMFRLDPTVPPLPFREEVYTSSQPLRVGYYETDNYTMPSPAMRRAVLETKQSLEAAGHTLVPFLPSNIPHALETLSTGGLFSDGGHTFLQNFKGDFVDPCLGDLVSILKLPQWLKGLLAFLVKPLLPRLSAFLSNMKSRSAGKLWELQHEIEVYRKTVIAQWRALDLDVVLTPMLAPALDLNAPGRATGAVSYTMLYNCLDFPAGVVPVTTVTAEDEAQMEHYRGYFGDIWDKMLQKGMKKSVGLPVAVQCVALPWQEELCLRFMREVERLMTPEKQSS
Procedure: The resulting solution is added into one dish of 30-40% confluent COS-7 cells in a drop-wise manner. The COS-7 cell dish is subsequently incubated for 48 hours. The cells are then harvested.
Harvest procedure: Media was aspirated from the dishes and the cells rinsed with 10 mL PBS. The PBS was removed and 3 mLs of PBS added to the dish. The dish was scraped to resuspend the cells, and the subsequent cell suspension collected into a 15 ml conical tube. The cells were pelleted by centrifugation at 1200 rpm for 5 minutes in a bench top centrifuge. PBS was removed and the cell pellet snap frozen in liquid nitrogen, store at −80 C.
The pellets were dounce homogenized and then sonicated to produce cell extract. The cell extract was subsequently centrifuged at 1000 g to remove cellular debris. The pellet was discarded and the supernatant centrifuged at 13,000 g for 20 minutes. The pellet contained membrane bound FAAH. The supernatant was discarded and the pellet resolubilized.
(2) Re-solubilization: The fraction of interest, (13,000 g, membrane fraction) was re-suspended in re-suspension buffer (20 mM Hepes pH 7.8, 10% v/v Glycerol, 1 mM EDTA, 1% Triton X-100) (2.3 mL re-suspension and the sample incubated on ice for 1 hour and then centrifuged to at 13,000 g remove any particulate matter. The supernatant containing solubilized human FAAH was aliquoted and snap frozen in liquid nitrogen and stored at −80° C. until use.
FAAH reaction buffer: 50 mM Hepes (pH 7.5), 1 mM EDTA, 0.2% Triton X-100.
Human FAAH assay; Experimental Protocol: A 0.1 mg/mL Human FAAH solution is made up in FAAH reaction buffer, and 24 ul pipetted into a 384 well plate. To this is added 1 uL of a 3 fold serially diluted inhibitor from a DMSO stock solution. The FAAH solution and inhibitor are incubated for 30 minutes at room temperature. The FAAH reaction is initiated by the addition of 25 uL of 40 uM AMC Arachidonoyl Amide in FAAH reaction buffer, yielding a final reaction human FAAH preparation concentration of 0.05 mg/ml and AMC-Arachidonoyl substrate concentration of 20 uM, reaction volume 50 uL. The reaction is allowed to proceed for 4 hours at room temperature. […] The microtiter plate in read in the envision plate reader.

Structure (SMILES) | pKi
NCCOB(c1ccccc1)c1ccccc1 [Compound I-125] | < 6.00
OB(O)c1ccc(-c2ccccc2)cc1 [Compound I-187] | 7.00 to 8.00

Same assay, conditions: Table 1, human FAAH (no asterisk); read-out: Activity (Ki)

Structure (SMILES) | pKi
Cc1ccc(B(O)O)cc1 [Compound I-96] | < 6.00
CC(C)Cc1ccc(B(O)O)cc1 [Compound I-97] | 7.00 to 8.00
OB(O)c1ccc2c(c1)OCCO2 [Compound I-98] | 6.00 to 8.00
OB1OCCc2ccccc21 [Compound I-99] | < 6.00
OB(O)c1cccc2[nH]ccc12 [Compound I-100] | < 6.00
OB(O)c1ccc2cc[nH]c2c1 [Compound I-101] | < 6.00
Cn1ccc2ccc(B(O)O)cc21 [Compound I-102] | < 6.00
OB(O)c1ccc2c(c1)CCO2 [Compound I-103] | < 6.00
O=Cc1ccc(B(O)O)c2ccccc12 [Compound I-104] | 6.00 to 8.00
OB(O)c1ccccc1F [Compound I-105] | 6.00 to 8.00
OB(O)/C=C/c1ccccc1 [Compound I-106] | < 6.00
OB(O)c1ccccc1 [Compound I-107] | < 6.00
OB(O)c1ccc2nccn2c1 [Compound I-109] | < 6.00
Cc1ccc(B(O)O)c(F)c1 [Compound I-110] | 6.00 to 8.00
OB(O)c1cccc2ccccc12 [Compound I-111] | 6.00 to 8.00
OB(O)c1cccc2cccnc12 [Compound I-112] | < 6.00
OB(O)c1cccc2ncccc12 [Compound I-113] | 6.00 to 8.00
CC(C)(C)OC(=O)n1c(B(O)O)cc2cc(OCc3ccccc3)ccc21 [Compound I-114] | < 6.00
CC(C)(C)OC(=O)n1c(B(O)O)cc2c(OCc3ccccc3)cccc21 [Compound I-115] | < 6.00
Cn1c(B(O)O)cc2c(OCc3ccccc3)cccc21 [Compound I-116] | < 6.00
COc1ccc(CN(Cc2ccc(OC)cc2)S(=O)(=O)c2ccc(B(O)O)cc2)cc1 [Compound I-117] | < 6.00
COc1ccc(CN(Cc2ccccc2)S(=O)(=O)c2ccc(B(O)O)cc2)cc1 [Compound I-118] | 6.00 to 8.00
O=S(=O)(NCC1CCCCC1)c1ccc(B(O)O)cc1 [Compound I-119] | 6.00 to 8.00
COc1ccc(CNS(=O)(=O)c2ccc(B(O)O)cc2)cc1 [Compound I-120] | 7.00 to 8.00

Structure (SMILES) | pKi
Cc1nnc(-c2ccc(B(O)O)cc2)o1 [Compound I-121] | 7.00 to 8.00
COc1ccc(CNC(=O)Nc2ccc(B3OC(C)(C)C(C)(C)O3)cc2)cc1 [Compound I-122] | 6.00 to 8.00
O=C(NCCc1ccccc1)c1ccc(B(O)O)cc1 [Compound I-123] | > 8.00
OB(O)c1ccc(OCCn2cccn2)cc1 [Compound I-124] | 7.00 to 8.00
CC1(C)OB(c2ccc(/C=C\c3ccccc3)cc2)OC1(C)C [Compound I-126] | < 6.00
OB(O)c1ccc2[nH]ccc2c1 [Compound I-128] | < 6.00
O=C(c1ccc(Oc2ccccc2)cc1)C(F)(F)F [Compound I-132] | < 6.00
CC(C)(C)OC(=O)n1c(B(O)O)cc2ccccc21 [Compound I-133] | < 6.00
Cc1cc(OCc2ccccc2)ccc1B(O)O [Compound I-134] | 7.00 to 8.00
OB(O)c1ccc(-c2cccs2)s1 [Compound I-135] | 6.00 to 8.00
O=Cc1ccc(-c2ccccc2)c(F)c1 [Compound I-136] | < 6.00
CCCCOc1ccc(B(O)O)c(C)c1 [Compound I-138] | 6.00 to 8.00
OB(O)c1ccc(N2CCOCC2)cc1 [Compound I-139] | 6.00 to 8.00
OB(O)c1cccc(OCc2ccccc2Cl)c1 [Compound I-140] | 7.00 to 8.00
OB(O)c1cccc(OCc2cccc(Cl)c2)c1 [Compound I-141] | 7.00 to 8.00
OB(O)c1c(F)ccc(OCc2ccccc2)c1F [Compound I-143] | < 6.00
OB(O)c1ccc(OCc2ccccc2)cc1F [Compound I-146] | > 8.00
OB(O)c1ccc(OCc2cccc(Br)c2)c(Cl)c1 [Compound I-147] | > 8.00
Cc1cc(B(O)O)cc(C)c1OCc1cccc(Cl)c1 [Compound I-148] | > 8.00
OB(O)c1ccc(OCc2ccc(F)cc2)c(Cl)c1 [Compound I-152] | > 8.00
OB(O)c1ccc(OCc2cccc(Cl)c2)c(Cl)c1 [Compound I-154] | > 8.00
OB(O)c1ccc(OC2CCCCO2)cc1 (stereo not drawn) [Compound I-158] | 7.00 to 8.00
OB(O)c1ccc2c(c1)Oc1ccccc1S2 [Compound I-159] | < 6.00
OB(O)c1cc2ccccc2nc1Cl [Compound I-160] | < 6.00

Structure (SMILES) | pKi
CCCCCc1ccc(B(O)O)cc1 [Compound I-161] | > 8.00
OB(O)c1ccc(C2CCCCC2)cc1 [Compound I-162] | > 8.00
O=C(Nc1ccc(B(O)O)cc1)OCc1ccccc1 [Compound I-163] | 7.00 to 8.00
O=C(NCc1ccccc1)c1ccc(B(O)O)cc1 [Compound I-164] | > 8.00
O=C(Nc1ccccc1)c1cccc(B(O)O)c1 [Compound I-165] | < 6.00
O=C(NCc1ccco1)c1ccc(B(O)O)cc1 [Compound I-167] | 7.00 to 8.00
OB(O)c1ccc2cc(O)ccc2c1 [Compound I-168] | 7.00 to 8.00
O=C(Nc1ccccc1)c1ccc(B(O)O)cc1 [Compound I-169] | 7.00 to 8.00
O=C(c1ccc(B(O)O)cc1)N1CCOCC1 [Compound I-171] | 6.00 to 8.00
O=C(OCc1ccccc1)c1ccc(B(O)O)cc1 [Compound I-173] | > 8.00
OB(O)c1cc2ccccc2o1 [Compound I-176] | < 6.00
OB(O)c1ccc2ccccc2c1 [Compound I-178] | 7.00 to 8.00
OB(O)c1ccc2c3c(cccc13)CC2 [Compound I-181] | 6.00 to 8.00
OB(O)c1ccccc1OCc1ccccc1 [Compound I-182] | < 6.00
OB(O)c1cc2ccccc2c2ccccc12 [Compound I-183] | < 6.00
COc1ccc2cc(B(O)O)ccc2c1 [Compound I-184] | 7.00 to 8.00
OB(O)c1ccc(-c2ccccc2)cc1F [Compound I-185] | > 8.00
OB(O)c1cccc(-c2ccccc2)c1 [Compound I-186] | 6.00 to 8.00
OB(O)c1ccc(-c2ccccc2)c(F)c1 [Compound I-194] | > 8.00
OB(O)c1ccc(-c2ccccc2)s1 [Compound I-196] | 7.00 to 8.00
OB(O)c1csc2ccccc12 [Compound I-197] | 7.00 to 8.00
OB(O)c1ccc(-c2ccc(B(O)O)cc2)cc1 [Compound I-198] | 7.00 to 8.00
O=C(c1ccccc1)c1ccc(B(O)O)cc1 [Compound I-202] | > 8.00
OB(O)c1ccc(OC(F)(F)F)cc1 [Compound I-204] | 7.00 to 8.00

Same assay, conditions: Table 2, human FAAH (no asterisk); read-out: Activity (Ki)

Structure (SMILES) | pKi
OB(O)c1ccc(OCc2cn(C3CCCC3)nn2)cc1F [II-1] | 7.00 to 8.00
OB(O)c1ccc(-c2ccc(F)c(F)c2)cc1F [II-2] | > 8.00
Cc1ccc(-c2ccc(B(O)O)c(F)c2)cc1F [II-3] | > 8.00
CN(C)c1cccc(-c2ccc(B(O)O)c(F)c2)c1 [II-4] | > 8.00
O=C1C[N+]2(Cc3ccccc3)CC(=O)O[B-]2(c2ccc(-c3cccc(F)c3)cc2F)O1 (stereo not drawn) [II-5] | > 8.00
OB(O)c1ccc(OCCc2ccccn2)cc1F [II-6] | > 8.00
OB(O)c1ccc(-c2nnc(-c3ccco3)o2)cc1 [II-7] | > 8.00
OB(O)c1ccc(OCCc2ccccc2)cc1F [II-8] | > 8.00
O=C(CCc1ccccc1)c1ccc(B(O)O)cc1 [II-9] | > 8.00
OB(O)c1ccc(-c2ccc(-c3ccccc3)c(F)c2)cc1F [II-10] | > 8.00
OB(O)c1ccc(-c2cccc(F)c2)cc1F [II-11] | > 8.00
OB(O)c1ccc(Oc2cccc(F)c2)cc1F [II-12] | > 8.00
OB(O)c1ccc(-c2cccnc2)cc1F [II-13] | 7.00 to 8.00
